# Test results reported in US20240415878A1, “Compositions and Methods for Modulating Mitochondrial Function” (Board of Regents, The University of Texas System, priority 2021, published 2024).
# Columns and labels:
# MCU = biological target: T1, MCU (Homo sapiens, UniProt Q8NE86); experiment: MCU-mediated mCa2+ uptake in permeabilized cells (spectrofluorometry); assay type: cell-based; details: permeabilized cells (HeLa, 10 μM per FIG. 10H legend)
# T1 construct: endogenous in cells; host or cells: HeLa cells, permeabilized
# T1 sequence (Q8NE86 51-351): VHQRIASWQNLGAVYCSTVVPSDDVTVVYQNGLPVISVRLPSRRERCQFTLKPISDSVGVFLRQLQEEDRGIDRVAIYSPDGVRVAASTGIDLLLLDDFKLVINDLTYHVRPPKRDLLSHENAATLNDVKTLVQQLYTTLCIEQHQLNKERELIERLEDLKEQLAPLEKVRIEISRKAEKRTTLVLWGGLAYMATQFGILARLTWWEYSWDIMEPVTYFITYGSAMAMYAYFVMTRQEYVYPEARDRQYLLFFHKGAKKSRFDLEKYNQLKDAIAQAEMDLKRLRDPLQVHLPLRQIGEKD
# T1 sequence (Q9H4I9 48-107 partner limits assumed): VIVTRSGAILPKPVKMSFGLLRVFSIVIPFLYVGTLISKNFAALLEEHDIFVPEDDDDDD
# Description: Bacterial CorA forms a pentameric complex that selectively drives Mg2+ uptake in an electrogenic manner. […] Mrs2 is the eukaryotic homologue of CorA and contains two transmembrane domains with a well-conserved F/Y-G-M-N motif; therefore, CorA blockers were tested to determine if they alter Mrs2-mediated mMg^2+ uptake (Moomaw and Maguire, 2008). Digitonin permeabilized hepatocytes were utilized to measure the inhibitory effect and determine its IC50. Permeabilized cells were treated with CPACC followed by a 1 mM bolus of MgCl2 (FIG. 10B). A 1 mM Mg^2+ bolus was added after baseline recording, and the extramitochondrial Mg^2+ clearance was used as a read-out for Mrs2-mediated mMg^2+ uptake using Mag-Green as a Mg^2+ indicator. […] We next investigated Mrs2 inhibition in intact hepatocytes loaded with Mag-Green-AM. […] Next CPACC was examined to determine if it had any effect on MCU-mediated mCa^2+ uptake in permeabilized cells. […] The availability of the compound to intact cells was measured using graphite furnace atomic absorption spectroscopy (GFAAS) and bicinchoninic acid in parallel.
# Spectrofluorimetric measurement of mitochondrial Mg^2+ and Ca^2+ dynamics and citrate mediated MagGreen fluorescence quenching. Fluorescence measurements were conducted in a multiwavelength excitation dual wavelength emission spectrofluorometer (Delta RAM, PTI, HORIBA). […]
# HIF-1α = details: cell culture
# From the text: HIF-1α is stabilized in Mrs2−/− mice. To examine the intrinsic role of Mrs2, Mrs2^−/− mice were challenged to LPS-induced inflammatory response. It was noticed that there was a barely detectable HIF-1α stabilization in control but a significant HIF-1α protein accumulation following LPS stimulation in Mrs2^−/− hepatocytes (Daw et al., 2020). […] It was envisioned that loss of Mrs2 in hepatocyte mitochondria might control metabolite fluxes that regulates HIF-1α stability under normoxic conditions. HIF-1α is the most commonly studied transcription factor that responds to oxygen tension and its stabilization controls numerous metabolic cascades, including glycolysis and oxidative phosphorylation (Kaelin and Ratcliffe, 2008; Lum et al., 2007; Semenza, 2013). A targeted metabolite screen was conducted to identify whether these metabolites potentially altered in Mrs2^−/− control HIF-1α stabilization. WT hepatocytes were treated with the PHD inhibitor FG-4952 for 6 hours in the presence or absence of metabolites (Buckley et al., 2012). […] Next it was explored whether citric acid mediated HIF-1α destabilization is a hydroxylation dependent mechanism by reconstitution of hydroxylation-dead mutant HIF-1α in COS-7 cells (Yan et al., 2007). […] Next tested the potency of citric acid and sodium citrate was tested. Hepatocytes isolated from WT or Mrs2^−/− mice were treated for 6 hours. HIF-1α stabilization was less affected by di- or tri-sodium citrate than by citric acid (FIG. 9G). […] The citric acid-mediated HIF-1α destabilization was intact in multiple chemical modalities (FIG. 9H) and the intracellular chelation of Mg^2+ ions suppressed FG-4952-induced HIF-1α stabilization (FIG. 9I). […] Furthermore, COS-7 cells were more sensitive to the HIF-1α stabilizing effect compared to hepatocytes. […] Next HIF-1α abundance was tested in liver tissues harvested from dietary cohorts. HIF-1α protein expression/stabilization was prominent in both Mrs2^−/− and Mrs2^−/− WD, whereas HIF-1α protein was nearly completely absent in WT WD (FIG. 9M). This supports the elevation of HIF-1α protein level as a key mechanism driving transcription changes in Mrs2^−/− WD livers.
# Immunoblotting. Crushed tissues were homogenized in lysis buffer (ThermoFisher) on ice for one minute (20-30 strokes) using an automatic Dounce homogenizer set to 2000 RPM. Whole cell lysate was prepared in lysis buffer (Abcam) using 3 sets of 3-second sonication (power level 3) intervals on ice. Protein concentration was estimated using Pierce BCA assay kit and samples were prepared and heated for 90° C. for 5 minutes. Equal amounts of protein were loaded and separated on 4%-12% Bis-Tris polyacrylamide gel (Thermo Fisher Scientific), transferred to a PVDF membrane, blocked for 1-2 h using 5% fat free skim milk, washed and finally, probed with corresponding antibodies as specified below. Antibodies were from Cell Signaling Technology (HIF-1α and Hydroxy HIF-1α dilution 1:3000, MCU dilution 1.5000, MICU1 dilution 1:3000), Abcam Abcam (CPT-1a, CPT-2, OXPHOS cocktail dilution 1:3000), ZYMED Laboratories (β-actin; dilution 1:1,000), and Amersham (secondary antibodies conjugated with peroxidase). Development was done using X-ray film using a series of timed exposures and Image J was used for densitometric analysis on scanned film images.
structure (smiles),measurement,setting,value
"[NH2][Co]([NH2])([NH2])([NH2])([NH2])[Cl] [CPACC, chloropentaammine cobalt (III) chloride]",MCU-mediated mCa^2+ uptake,MCU,did not inhibit
same,HIF-1α stabilization by the compound,HIF-1α,partial stabilization
